Source: PMC8610590 (Journal of Virology, 2021)
Read-outs that look alike come from different tables or passages of the source.

Assays:
[1] = biological target: ACE2: SARS-CoV-2 Spike RBD (UniProt P0DTC2+Q9BYF1); assay: ACE2: SARS-CoV-2 Spike RBD inhibitor screening assay; format: binding, human ACE2 / SARS-CoV-2
[2] = tested on: pseudotyped lentiviral particles expressing Spike glycoprotein of SARS-CoV-2; assay: microbe, parasite or virus in culture; format: cell-based
[3] = tested on: SARS-CoV-2 isolate USA-WI1/2020; assay: Antiviral activity against live SARS-CoV-2 in UNCN1T cells; format: cell-based; settings: for antiviral efficacy against live SARS-CoV-2 (in words): UNCN1T cells, compared to DMSO vehicle control, data not shown
[4] = tested on: SARS-CoV-2 isolate USA-WI1/2020; format: cell-based
[5] = MTT cell viability assay, Vero-STAT1 knockout; format: cell-based; settings: African green monkey
SARS-CoV-2 = format: cell-based
[6] = tested on: SARS-CoV-2 isolate USA-WI1/2020; assay: microbe, parasite or virus in culture; format: cell-based
[7] = Severe acute respiratory syndrome coronavirus 2, read-out: IC50, inhibition of SARS-CoV-2 replication
[8] = read-out: IC50, inhibition of SARS-CoV-2 replication

| Structure (SMILES) | IC50 [1] [µM] | pseudotype viral entry inhibition (in words) [2] | antiviral efficacy against live SARS-CoV-2 (in words) [3] | CC50 at 72 h [5] [µM] | SARS-CoV-2 infection compared with vehicle controls (in words) (SARS-CoV-2) | other results |
| --- | --- | --- | --- | --- | --- | --- |
| OC(CNCCNc1ncccc1C(F)(F)F)Cn1ccc2ccccc21 (stereo not drawn) [MU-UNMC-7, 1-(1H-indol-1-yl)-3-((2-((3-(trifluoromethyl)pyridin-2-yl)amino)ethyl)amino)propan-2-ol] | > 5 | failed to prevent the pseudovirus entry | did not see any reduction in viral replication kinetics | – | – | – |
| CN(C)/C=C1\N=C(c2cccnc2Oc2ccc(Cl)cc2)OC1=O [MU-UNMC-8, (Z)-2-(2-(4-chlorophenoxy)pyridin-3-yl)-4-((dimethylamino)methylene)oxazol-5(4H)-one] | > 5 | failed to prevent the pseudovirus entry | did not see any reduction in viral replication kinetics | – | – | – |
| CCn1c(SCC(=O)N2CCCc3ccccc32)nnc1-c1cccs1 [MU-UNMC-6, 1-(3,4-dihydroquinolin-1(2H)-yl)-2-((4-ethyl-5-(thiophen-2-yl)-4H-1,2,4-triazol-3-yl)thio) ethanone] | 1.91 | failed to prevent the pseudovirus entry | did not see any reduction in viral replication kinetics | – | – | – |
| CCC(CC)COC(=O)[C@H](C)N[P@](=O)(OC[C@H]1O[C@@](C#N)(c2ccc3c(N)ncnn23)[C@H](O)[C@@H]1O)Oc1ccccc1 [RDV, remdesivir] | – | – | – | – | – | reduction in dosages in combination [4]: 2.3 fold; dose reduction index (DRI) ([4]; RDV/MU-UNMC-2 combination, UNCN1T cells, CompuSyn): 2.33 |
| CN1C(=O)c2ccccc2[S+]([O-])c2cc([N+](=O)[O-])ccc2S1(=O)=O (stereo not drawn) [MU-UNMC-1, 6-methyl-2-nitrodibenzo[d,g][1,6,2]dithiazocin-7(6H)-one 5,5,12-trioxide] | < 0.25 | low level of viral entry inhibition with a slight increase at higher concentrations | – | 6.21 | no significant difference | IC50 [6, 7]: 5.35 µM; IC50 [6, 8]: 2.94 µM; IC50 [3, 7]: 0.67 µM; IC50 [3, 8]: 1.16 µM |
| O=C1Nc2cc(C(F)(F)F)ccc2Oc2ccsc21 [MU-UNMC-2, 7-(trifluoromethyl) benzo[b]thieno[2,3-f][1,4]oxazepin-10(9H)-one] | – | significant and robust viral entry inhibition across a broad concentration range | – | 7.13 | no significant difference | IC50 ([2]; Severe acute respiratory syndrome coronavirus 2, 48 h, read-out: IC50, inhibition of entry of pseudotyped lentiviral particles): 0.84 µM; reduction in dosages in combination ([4]; RDV/MU-UNMC-2 combination, human bronchial epithelial cell line): 28.3 fold |
